ChEMBL document CHEMBL5338818, “Discovery of the First Potent, Selective, and In Vivo Efficacious Polo-like Kinase 4 Proteolysis Targeting Chimera Degrader for the Treatment of TRIM37-Amplified Breast Cancer” (J Med Chem, 2023)
Calls of active or inactive are those of the source. The calls are words filed in the database; no cut-off is given here.

How the values were obtained:
MCF7 [1] = experiment: Induction of apoptosis in human MCF7 cells at 0.3 to 3 uM incubated for 36 hrs by Annexin V-FITC//propidium iodide staining based flow cytometry analysis; type: functional, cell-based; details: dose 0.3-3 µM
[2] = Apparent permeability across basolateral to apical side in human Caco-2 cells at 2 uM incubated for 2 hrs by LC-MS/MS analysis; type: ADME, cell-based
[3] = Bioavailability in ICR mouse at […] measured upto 24 hrs by LC-M/MS analysis; type: ADME, organism-based; details: in vivo
MCF7 [4] = experiment: Inhibition of human MCF7 cells migration at 0.1 to 1 uM by inverted microscopic analysis; type: functional, cell-based; details: dose 0.1-1 µM, time 48.0 hrs, TDE = time-dependent effect
[5] = molecular target: T1, Protein cereblon/Serine/threonine-protein kinase PLK4 (Homo sapiens, UniProt O00444+Q96SW2); experiment: Protac activity at CRBN/PLK4 in human MCF7 cells at 1 uM in presence of BAF by Western blot analysis; type: cell-based
MCF7 [6] = experiment: Antiproliferative activity against human MCF7 cells measured at 4 to 8 days interval by cell counting analysis; type: functional, cell-based; details: time 4-8 day
[7] = Half life in ICR mouse at 2 mg/kg, iv measured upto 24 hrs by LC-M/MS analysis; type: ADME, organism-based; details: in vivo
[8] = Toxicity in nu/nu mouse xenografted with human MCF7 cells assessed as effect on kidney at 20 mg/kg, ip administered once every other day for 21 days by HE staining based analysis; type: organism-based; details: in vivo, 504 h, time 21 day
[9] = Toxicity in nu/nu mouse xenografted with human MCF7 cells assessed as effect on liver at 20 mg/kg, ip administered once every other day for 21 days by HE staining based analysis; type: organism-based; details: in vivo, 504 h, time 21 day
[10] = Stability in human plasma assessed as compound remaining at 100 uM after 120 mins by LC-MS/MS analysis (reference value: 100%); type: ADME, cell-free; details: read-out: Stability
[11] = Metabolic stability in mouse liver microsomes assessed as compound remaining at 100 uM incubated for 60 mins by LC-MS/MS analysis; type: ADME, Microsome; details: read-out: Stability
[12] = Stability in human plasma assessed as half life at 100 uM after 120 mins by LC-MS/MS analysis; type: ADME, cell-free
[13] = Metabolic stability in rat liver microsomes assessed as compound remaining at 100 uM incubated for 60 mins by LC-MS/MS analysis; type: ADME, Microsome; details: read-out: Stability
[14] = Toxicity in nu/nu mouse xenografted with human MCF7 cells assessed as effect on spleen at 20 mg/kg, ip administered once every other day for 21 days by HE staining based analysis; type: organism-based; details: in vivo, 504 h, time 21 day
[15] = molecular target: T1, Protein cereblon/Serine/threonine-protein kinase PLK4; experiment: Protac activity at CRBN/PLK4 in human MCF7 cells at 0.1 uM incubated for 48 hrs by Western blot analysis; type: cell-based
[16] = AUClast in ICR mouse at 2 mg/kg, iv measured upto 24 hrs by LC-M/MS analysis; type: ADME, organism-based; set-up: time < 24 hrs, dose 2 mg/kg, route iv; details: in vivo
MCF7 [17] = experiment: Antitumor activity against human MCF7 cells xenografted in nu/nu mouse assessed as induction of apoptosis at 20 mg/kg, ip measured once every other day for 21 days by TUNEL assay; type: functional, organism-based; details: time 21.0 day
[18] = molecular target: T1, Protein cereblon/Serine/threonine-protein kinase PLK4; experiment: Protac activity at CRBN/PLK4 in human MCF7 cells at 1 uM by Western blot analysis; type: cell-based
[19] = molecular target: T1, Protein cereblon/Serine/threonine-protein kinase PLK4; experiment: Protac activity at CRBN/PLK4 in human MCF7 cells at 10 uM incubated for 48 hrs by Western blot analysis; type: cell-based
Mus musculus = experiment: In vivo induction of PLK degradation in human MCF7 cells xenografted in nu/nu mouse at 20 mg/kg, ip administered once every other day for 21 days by western blotting analysis; type: functional, organism-based; details: time 21.0 day
[20] = Metabolic stability in rat liver microsomes assessed as compound remaining at 100 uM incubated for 60 mins in presence of NADPH by LC-MS/MS analysis; type: ADME, Microsome; details: read-out: Stability
[21] = Metabolic stability in human liver microsomes assessed as compound remaining at 100 uM incubated for 60 mins by LC-MS/MS analysis; type: ADME, Microsome; details: read-out: Stability
[22] = Observed AUC infinity in ICR mouse at 20 mg/kg, ip measured upto 24 hrs by LC-M/MS analysis; type: ADME, organism-based; set-up: dose 20 mg/kg, time < 24 hrs, route ip; details: in vivo
MCF7 [23] = experiment: Antitumor activity against human MCF7 cells xenografted in nu/nu mouse assessed as tumor growth inhibition at 20 mg/kg, ip administered once every other day for 21 days; type: functional; details: MCF7, 504 h, time 21 day, read-out: TGI
MCF7 [24] = experiment: Antiproliferative activity against human MCF7 cells incubated for 5 days by CCK-8 assay; details: MCF7, 120 h
[25] = Observed AUC infinity in ICR mouse at 2 mg/kg, iv measured upto 24 hrs by LC-M/MS analysis; type: ADME, organism-based; set-up: time < 24 hrs, dose 2 mg/kg, route iv; details: in vivo
MCF7 [26] = experiment: Induction of cell cycle arrest at G2 phase in human MCF7 cells at 0.3 to 3 uM incubated for 36 hrs by Annexin V-FITC//propidium iodide staining based flow cytometry analysis; type: functional
[27] = Efflux ratio of apparent permeability across basolateral to apical side over apical to basolateral side in human Caco-2 cells; type: ADME, cell-based
[28] = Toxicity in nu/nu mouse xenografted with human MCF7 cells assessed as effect on heart at 20 mg/kg, ip administered once every other day for 21 days by HE staining based analysis; type: organism-based; details: in vivo, 504 h, time 21 day
[29] = Metabolic stability in rat liver microsomes assessed as half life at 100 uM incubated for 60 mins in presence of NADPH by LC-MS/MS analysis; type: ADME, Microsome
[30] = Half life in ICR mouse at 20 mg/kg, ip measured upto 24 hrs by LC-M/MS analysis; type: ADME, organism-based; details: in vivo
[31] = Metabolic stability in human liver microsomes assessed as compound remaining at 100 uM incubated for 60 mins in presence of NADPH by LC-MS/MS analysis; type: ADME, Microsome; details: read-out: Stability

T1 sequence (O00444 whole entry, looked up): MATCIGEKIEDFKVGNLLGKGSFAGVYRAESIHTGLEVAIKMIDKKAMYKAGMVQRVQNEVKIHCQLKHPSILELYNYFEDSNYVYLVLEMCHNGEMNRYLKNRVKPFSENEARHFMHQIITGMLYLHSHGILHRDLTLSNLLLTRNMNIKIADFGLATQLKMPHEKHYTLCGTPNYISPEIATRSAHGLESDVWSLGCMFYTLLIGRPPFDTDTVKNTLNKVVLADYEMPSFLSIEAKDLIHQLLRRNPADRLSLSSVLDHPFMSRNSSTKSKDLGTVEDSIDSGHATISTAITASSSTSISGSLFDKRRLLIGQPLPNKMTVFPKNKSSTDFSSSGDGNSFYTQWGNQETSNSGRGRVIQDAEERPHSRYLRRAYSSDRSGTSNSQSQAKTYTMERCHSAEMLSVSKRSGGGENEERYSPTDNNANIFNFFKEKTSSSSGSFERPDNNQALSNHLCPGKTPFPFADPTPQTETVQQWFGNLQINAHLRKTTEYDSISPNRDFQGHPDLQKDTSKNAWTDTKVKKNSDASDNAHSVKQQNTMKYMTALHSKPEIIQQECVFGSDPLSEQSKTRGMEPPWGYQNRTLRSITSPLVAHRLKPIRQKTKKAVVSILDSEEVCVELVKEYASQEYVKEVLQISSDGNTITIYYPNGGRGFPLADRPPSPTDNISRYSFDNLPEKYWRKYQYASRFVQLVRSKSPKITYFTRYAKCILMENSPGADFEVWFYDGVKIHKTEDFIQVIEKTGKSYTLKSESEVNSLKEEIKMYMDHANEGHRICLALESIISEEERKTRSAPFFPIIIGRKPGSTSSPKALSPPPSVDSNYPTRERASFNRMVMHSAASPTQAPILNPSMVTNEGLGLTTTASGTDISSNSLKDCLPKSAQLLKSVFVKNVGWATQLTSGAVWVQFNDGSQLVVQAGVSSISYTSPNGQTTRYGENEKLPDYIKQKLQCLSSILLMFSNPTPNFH
T1 sequence (Q96SW2 whole entry, looked up): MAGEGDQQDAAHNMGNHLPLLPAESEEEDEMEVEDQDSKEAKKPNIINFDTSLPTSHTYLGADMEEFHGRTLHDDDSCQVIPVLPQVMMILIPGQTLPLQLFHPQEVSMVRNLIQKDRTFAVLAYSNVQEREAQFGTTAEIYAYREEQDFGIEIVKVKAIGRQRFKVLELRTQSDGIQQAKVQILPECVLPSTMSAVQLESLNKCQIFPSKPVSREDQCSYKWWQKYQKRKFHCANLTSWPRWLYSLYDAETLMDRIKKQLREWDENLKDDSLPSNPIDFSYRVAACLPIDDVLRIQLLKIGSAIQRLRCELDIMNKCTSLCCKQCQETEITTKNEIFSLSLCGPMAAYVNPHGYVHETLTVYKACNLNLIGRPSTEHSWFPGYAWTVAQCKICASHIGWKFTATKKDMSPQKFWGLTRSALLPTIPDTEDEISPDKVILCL

- Papp B→A at 2 h, 2 µM [2]: 0.97 ×10⁻⁶ cm/s
- bioavailability [3]: 149%
- Activity [5]: inactive
- half-life [7]: 5.34 h
- remaining at 2 h, 100 µM [10]: 69.9%
- remaining at 1 h, 100 µM [11]: 80.7%
- half-life at 100 µM [12]: > 2 h
- remaining at 1 h, 100 µM [13]: 93.1%
- Activity [15]: 68.3%
- AUC(0-t) at 24 h [16]: 941 ng·h/mL
- Activity [18]: Active
- Activity [19]: 83.5%
- remaining at 1 h, 100 µM [20]: 51.5%
- remaining at 1 h, 100 µM [21]: 97.3%
- AUC(0-inf) [22]: 14200 ng·h/mL
- IC50 (MCF7 [24]): 73 nM
- AUC(0-inf) [25]: 956 ng·h/mL
- efflux ratio [27]: 2.02
- half-life at 100 µM [29]: 1.11 h
- half-life [30]: 4.66 h
- remaining at 1 h, 100 µM [31]: 51.7%
Compound: Cc1cc(Nc2nc(NCc3ccc(F)cc3F)nc3c2cnn3C2CCN(C(=O)C3CCN(c4ccc5c(c4)C(=O)N(C4CCC(=O)NC4=O)C5=O)CC3)CC2)n[nH]1 (configuration not stated)
- Activity (MCF7 [1]): Dose-Dependent Effect
- inhibition (MCF7 [4]): Tde
- Activity (MCF7 [6]): Active
- Activity [8]: Non-Toxic
- Activity [9]: Non-Toxic
- Activity [14]: Non-Toxic
- inhibition (MCF7 [17]): Active
- inhibition (Mus musculus): Active
- inhibition in vivo at 20 mg/kg (MCF7 [23]): 73.7%
- Activity (MCF7 [26]): Dose-Dependent Effect
- Activity [28]: Non-Toxic
